Tests used:
[1] = system: Influenza A virus; experiment: Inhibitory activity against sialidase of influenza A; type: functional, organism-based
[2] = system: Influenza B virus; experiment: Inhibitory activity against sialidase of influenza B at a concentration of 660 uM; type: functional
[3] = system: Influenza B virus; experiment: Inhibitory activity against sialidase of influenza B; type: functional, organism-based

CCCO[C@@H]1C=C(C(=O)O)C[C@H](N)[C@H]1NC(C)=O
IC50 [1]: 0.13 µM

CCCO[C@@H]1CC2(C(=O)O)CC[C@@]1(NC(C)=O)[C@@H](O)C2 (single isomer, unassigned)
inhibition at 660 µM [2]: 12%
IC50 [3]: 660 µM
IC50 [1]: 660 µM

Reference: ChEMBL document CHEMBL1131953, “Synthesis of a tetrasubstituted bicyclo [2.2.2] octane as a potential inhibitor of influenza virus sialidase” (Bioorg Med Chem Lett, 1999)
